Measurements taken from patent US20140205631A1, “Stimulation of vaccination by angiotensin peptides” (University of Southern California, priority 2013, published 2014).

Assays:
[1] = test system: FIV-p24 antigen; assay: Oral secretion SIgA antibody titers (ELISA) after vaccination of cats; format: in vivo, feline immunodeficiency virus (FIV)
Description: (§1) Animals: Eleven (11) female outbred cats>24 weeks old that were free of FIV, feline leukemia virus (FeLV) and feline infectious peritonitis virus were employed. The animals were restrained for the application of test articles to mucous membranes and collection of blood and mucosal secretions. Sedation, if necessary, was induced by subcutaneous administration of ketamine hydrochloride (22 mg/kg) and acepromazine maleate (0.1 mg/kg). Euthanasia was accomplished with a lethal overdose of barbiturates. All activities were approved by the Institutional Animal Care and Use Committee and supervised by veterinary staff.
(§2) Vaccine Preparation: Fel-O-Vax FIV (Fort Dodge Animal Health, Fort Dodge, Iowa) and A(1-7) was combined in a constant volume of 2% hydroxyethyl cellulose (2% HEC). The range of concentrations of A(1-7) ranged from 0 to 10 mg/mL with a constant 0.33 mL of Fel-O-Vax FIV suspended in each mL of the gel applied for vaccination purposes. Two control animals received intramuscular Fel-O-Vax FIV at baseline, week 3 and week 5. One control animal had mucosal vaccination with Fel-O-Vax alone suspended in the 2% HEC without A(1-7) and one control animal received intramuscular Fel-O-Vax FIV with 0.3 mg/kg of A(1-7) at baseline, week 3 and week 5.
(§3) Delivery of angiotensin(1-7) and FIV vaccine to mucosal surfaces: 2% HEC, a viscous gel, was used as the vehicle for the topical delivery of angiotensin(1-7) and FIV vaccine. The topical vaccine was applied to the mucosal surface weekly for 6 consecutive weeks. 1.0 mL was applied to the muzzle for oral mucosal vaccination and 1.0 mL and 0.2 mL was instilled in the rectal and vaginal vaults, respectively for mucosal vaccination at these sites.
(§4) Measurement of Local Immune Response: The Weck-Cel Surgical Spear (Windsor Biomedical, Newton, N.H.) was used to obtain secretions. Once inserted, the sponge is allowed to remain in place for 5 minutes. The secretions were extracted by centrifugation with 300 μL of a buffer solution. The buffer solution is prepared by mixing 50 μL of 100× protease inhibitor cocktail and 250 μL of 10% Igepal (Sigma, St Louis, Mo., U.S.A.) with 4.7 ml of phosphate-buffered saline (PBS) containing 0.25% bovine serum albumin (BSA, Fraction V; Sigma). The 100× protease inhibitor cocktail contains 100 μg/mL aprotinin, 500 μg/mL leupeptin, 100 μg/mL bestatin (all Sigma), and 50 μg/mL 4-(2-Aminoethyl)-benzenesulfonyl fluoride hydrochloride (Roche Applied Sciences, U.S.A.) in phosphate buffered saline.
(§5) The local immune response in mucosal secretions was evaluated against the homologous FIV-p24 antigen (Cell Biolabs, Inc, San Diego, Calif.) or the heterologous HIV-gp120 antigen (ImmunoDiagnostics, Inc, Woburn, Mass.). Plates were prepared with 50 ng/mL FIV-p24 antigen or with 500 ng/mL HIV-gp120 antigen (Bachem Americans, Inc, Torrance, Calif.) incubated over night at 4° C., washed and the target sample added and incubated overnight again at 4° C. The plates were washed and the indicator goat anti-feline IgG (Accurate Chemical & Scientific Corp., Westbury, N.Y., working titer 1:10,000) or goat anti-feline IgA (Accurate Chemical & Scientific Corp., Westbury, N.Y., working titer 1:1,000) added and incubated for 24 hours at 4° C. Following a final wash, substrate solution was added. The stop solution was added after 15 minutes for the IgG reaction and after 30 minutes for the IgA reaction. Plates were read at 450 nm.

[2] = test system: HIV-gp120 antigen; assay: as above; format: in vivo, human immunodeficiency virus (HIV); details: for SIgA anti-HIV-gp120: oral, Week 8, lowest dilution 1:4, elution factor 4-fold
Description: as §1, §2, §3, §4, §5

[3] = test system: FIV-p24 antigen; assay: Vaginal secretion SIgA antibody titers (ELISA) after vaccination of cats; format: in vivo, feline immunodeficiency virus (FIV); details: for SIgA Anti-FIV-p24: vaginal, lowest dilution Undilute
Description: as §1, §2, §3, §4, §5

[4] = test system: HIV-gp120 antigen; assay: as above; format: in vivo, human immunodeficiency virus (HIV); details: for SIgA Anti-HIV gp120: vaginal, Week 8, lowest dilution 1:4, elution factor 300-fold
Description: as §1, §2, §3
Measurement of Local Immune Response: The Weck-Cel Surgical Spear (Windsor Biomedical, Newton, N.H.) was used to obtain secretions. […]
(§6) The local immune response in mucosal secretions was evaluated against the homologous FIV-p24 antigen (Cell Biolabs, Inc, San Diego, Calif.) or the heterologous HIV-gp120 antigen (ImmunoDiagnostics, Inc, Woburn, Mass.). […] Plates were read at 450 nm.

[5] = test system: mucosal SIgA antibody production; assay: Local (mucosal) secretory IgA immune response after vaccination of cats, general statements; format: in vivo
Description: as §1
as §2, with “One control animal had mucosal vaccination with Fel-O-Vax alone suspended in the 2% HEC without A(1-7) and one control animal received intramuscular Fel-O-Vax FIV with 0.3 mg/kg of A(1-7) at baseline, week 3 and week 5.” left out
as §6

[6] = Topical application of FIV antigen with A(1-7)

Q: “Asp-Arg-Val-Tyr-Ile-His-Pro (DRVYIHP) [A(1-7)]” was tested. Which “SIgA Anti-FIV-p24” value ([1]; topical Fel-O-Vax FIV + 7.5 A(1-7) in 2% HEC, Week 4, lowest dilution Undilute) did it give?
A: Negative

Q: And the “SIgA Anti-FIV-p24” value ([1]; topical Fel-O-Vax FIV + 10.0 A(1-7) in 2% HEC, Week 2, lowest dilution Undilute)?
A: Negative

Q: What about the “SIgA Anti-FIV-p24” value ([1]; topical Fel-O-Vax FIV + 10.0 A(1-7) in 2% HEC, Week 4, lowest dilution Undilute) of the same substance?
A: Negative

Q: And the “SIgA Anti-FIV-p24” value ([1]; topical Fel-O-Vax FIV + 10.0 A(1-7) in 2% HEC, Week 6, lowest dilution Undilute)?
A: Negative

Q: And the “SIgA Anti-FIV-p24” value ([1]; topical Fel-O-Vax FIV + 10.0 A(1-7) in 2% HEC, Week 8, lowest dilution Undilute)?
A: Negative

Q: What about the “SIgA-HIV-gp120 antibodies in oral secretions” value ([2]; A(1-7) combined with the intramuscular injections of Fel-O-Vax FIV) of the same substance?
A: even higher titers

Q: And the “dose response of oral SIgA-anti-HIV-gp120 antibody titers” value ([2]; increasing A(1-7) concentrations in the topical vaccine)?
A: initial raise and then decline

Q: What about the “SIgA anti-HIV-gp120” value ([2]; topical Fel-O-Vax FIV + 7.5 A(1-7) in 2% HEC) of the same substance?
A: Negative

Q: And the “SIgA anti-HIV-gp120” value ([2]; topical Fel-O-Vax FIV + 10.0 A(1-7) in 2% HEC)?
A: Negative

Q: What about the “SIgA-anti-HIV-gp120 antibody titers in oral secretions” value ([2]; topical application of the FIV antigen and A(1-7), compared with intramuscular) of the same substance?
A: Comparable levels

Q: What about the “SIgA against FIV-p24 in vaginal secretions” value [3, 6] of the same substance?
A: only low levels

Q: What about the “SIgA Anti-FIV-p24” value ([3]; IM Fel-O-Vax FIV + 0.3 mg/kg A(1-7), Week 2) of the same substance?
A: Negative

Q: And the “SIgA Anti-FIV-p24” value ([3]; IM Fel-O-Vax FIV + 0.3 mg/kg A(1-7), Week 4)?
A: Undilute

Q: What about the “SIgA Anti-FIV-p24” value ([3]; IM Fel-O-Vax FIV + 0.3 mg/kg A(1-7), Week 6) of the same substance?
A: Undilute

Q: And the “SIgA Anti-FIV-p24” value ([3]; topical Fel-O-Vax FIV + 0.1 A(1-7) in 2% HEC, Week 2)?
A: Undilute

Q: What about the “SIgA Anti-FIV-p24” value ([3]; topical Fel-O-Vax FIV + 0.1 A(1-7) in 2% HEC, Week 4) of the same substance?
A: Undilute

Q: What about the “SIgA Anti-FIV-p24” value ([3]; topical Fel-O-Vax FIV + 0.2 A(1-7) in 2% HEC, Week 2) of the same substance?
A: Undilute

Q: What about the “SIgA Anti-FIV-p24” value ([3]; topical Fel-O-Vax FIV + 0.2 A(1-7) in 2% HEC, Week 8) of the same substance?
A: Undilute

Q: What about the “SIgA Anti-FIV-p24” value ([3]; topical Fel-O-Vax FIV + 0.3 A(1-7) in 2% HEC, Week 6) of the same substance?
A: Undilute

Q: And the “SIgA Anti-FIV-p24” value ([3]; topical Fel-O-Vax FIV + 0.3 A(1-7) in 2% HEC, Week 8)?
A: Negative

Q: And the “SIgA Anti-FIV-p24” value ([3]; topical Fel-O-Vax FIV + 5.0 A(1-7) in 2% HEC, Week 2)?
A: Negative

Q: And the “SIgA Anti-FIV-p24” value ([3]; topical Fel-O-Vax FIV + 5.0 A(1-7) in 2% HEC, Week 4)?
A: Negative

Q: What about the “SIgA Anti-FIV-p24” value ([3]; topical Fel-O-Vax FIV + 5.0 A(1-7) in 2% HEC, Week 6) of the same substance?
A: Negative

Q: What about the “SIgA Anti-FIV-p24” value ([3]; topical Fel-O-Vax FIV + 5.0 A(1-7) in 2% HEC, Week 8) of the same substance?
A: Negative

Q: And the “SIgA Anti-FIV-p24” value ([3]; topical Fel-O-Vax FIV + 7.5 A(1-7) in 2% HEC, Week 2)?
A: Negative

Q: And the “SIgA Anti-FIV-p24” value ([3]; topical Fel-O-Vax FIV + 7.5 A(1-7) in 2% HEC, Week 4)?
A: Negative

Q: What about the “SIgA Anti-FIV-p24” value ([3]; topical Fel-O-Vax FIV + 7.5 A(1-7) in 2% HEC, Week 6) of the same substance?
A: Negative

Q: What about the “SIgA Anti-FIV-p24” value ([3]; topical Fel-O-Vax FIV + 7.5 A(1-7) in 2% HEC, Week 8) of the same substance?
A: Negative

Q: What about the “SIgA Anti-FIV-p24” value ([3]; topical Fel-O-Vax FIV + 10.0 A(1-7) in 2% HEC, Week 2) of the same substance?
A: Negative

Q: And the “SIgA Anti-FIV-p24” value ([3]; topical Fel-O-Vax FIV + 10.0 A(1-7) in 2% HEC, Week 6)?
A: Negative

Q: What about the “SIgA Anti-FIV-p24” value ([3]; topical Fel-O-Vax FIV + 10.0 A(1-7) in 2% HEC, Week 8) of the same substance?
A: Negative

Q: And the “SIgA-anti-HIV-gp120 antibodies in vaginal secretions” value [4, 6]?
A: substantial

Q: And the “SIgA Anti-HIV gp120” value ([4]; topical Fel-O-Vax FIV + 0.1 A(1-7) in 2% HEC)?
A: Negative

Q: What about the “SIgA Anti-HIV gp120” value ([4]; topical Fel-O-Vax FIV + 5.0 A(1-7) in 2% HEC) of the same substance?
A: Negative

Q: What about the “local secretory IgA immune responses” value ([5]; angiotensin (1-7) co-administered with killed FIV (Fel-O-Vax FIV) vaccine) of the same substance?
A: dramatic increase

Q: What about the “induction of SIgA antibody production at the mucosal surface” value ([5]; following A(1-7)+FIV immunization, two month period of observation) of the same substance?
A: sustained
